The values below come from patent publication US10285986B2, “Compounds and anti-tumor NQO1 substrates” (The Board of Trustees of the University of Illinois, priority 2011, dated 2019).

Data set [1] is described as follows: pKa, log P and log D of 4-31 measured by Absorption Systems. It counts as physicochemical. The text has this:
A sample of compound 4-31 was delivered to Absorption Systems, a company that specializes in preclinical formulation and stability studies. […] They measured a few physical properties of 4-31, including pKa, log P and log D. Through potentiometric titrations they measured the pKa of 4-31 to be 8.0.

The nature of data set [2]: Stability during incubation in plasma, whole blood and liver microsomes. It counts as in vitro ADME. To be noted: rat, dog, and human. As to the method:
Absorption Systems measured the stability of 4-31 during incubation in rat, dog, and human plasma, whole blood, and liver microsomes. […] This is in strong contrast top-lap, which has been reported to be completely degraded within about 30 min in whole blood.
For orientation: Liver microsomes are a subcellular fraction often used to study metabolism.

Another data set deals with PAR-PARP1. In words: PARP1 hyperactivation (PAR-PARP1 formation) in vivo in orthotopic Lewis Lung Carcinoma model, immunoblotting. Also noted: species or system NOD/SCID mice. The following applies: iv at or near MTD. As to the method:
Antibodies that specifically detect poly(ADP-ribosyl)ated α-PAR (BD Pharmingen, San Jose, Calif.) proteins (e.g., the most abundant species, poly(ADP-ribosyl)ated PARP1, PAR-PARP1) and α-PARP1 (sc-8007, Santa Cruz Biotechnology) antibodies were used at 1:4000 and 1:2000 dilutions, respectively. α-Tubulin was monitored for loading.
To generate a known control to monitor the formation of poly(ADP-ribose)ylated-polymerase 1 (PAR-PARP1) in cells, LLC tumor cells were treated in vitro with hydrogen peroxide (H2O2, 0.5 μM) for 15 minutes, and whole cell protein lysates were separated by SDS-PAGE using the α-PAR (BD Pharmingen, San Jose, Calif.) antibody described above. PAR-PARP1 formation was then assessed by immunoblot analyses as previously described in Huang et al., Cancer Research, 2012.
LLC cells (1.0×10^6) were intravenously (iv) injected into the tail veins of female 18-20 gram NOD/SCID mice. Establishment of tumor nodules in the lungs of exposed mice were confirmed by bioluminescence and mice (5/group) were treated intravenously (via tail vein injection) with: (i) hydroxypropyl-beta-cyclodextrin (HPRCD) vehicle alone; (ii) DNQ (7.5 mg/kg); (ii) DNQ-87 (14 mg/kg); (iii) DNQ-107 (10 mg/kg); or (vi) DNQ 9-251 (20 mg/kg) dissolved in HPRCD. At specific times indicated (in mins) after injection of vehicle or drug, mice were euthanized, lungs removed and tumor nodules harvested. […] Extracts from cells treated with H2O2 were used as controls for monitoring PAR-PARP1 formation in LLC tumor cells.
(A western blot detects proteins with antibodies after separation by electrophoresis.)

For data set [3], the system named is DNA single strand damage, base lesions and double strand breaks. As to the kind of experiment: DNA damage in vitro (alkaline comet assays, nuclear staining of DSB markers). The following applies: data not shown. It counts as cell-based.
The test system of the next data set is NQO1+ cells. In words: NQO1-dependent lethality to cancer cells in vitro. It counts as cell-based. The text has this:
NQO1 or PARP-1 knockdown spared the short-term lethality of DNQ-treated NQO1+ cells. BAPTA-AM (cytosolic Ca^2+ chelator) and catalase (enzymatic H2O2 scavenger) rescued DNQ-induced lethality by long-term survival assessments.

A further data set deals with healthy mice. As to the kind of experiment: in vivo. The following applies: mouse. The text has this: Because of the difficulty of repeated tail vein injections in mice, our group is using IP administration of compound.
All of these derivatives are currently being assessed for their maximum tolerated dose (MTD) in healthy mice. Compounds are formulated in HPβCD and delivered by IP injection to two mice once daily for five days.

For another data set, the system named is A549 NSCLC cells. In words: A549 subcutaneous xenograft model in nude mice, with or without ionizing radiation. To be noted: 5 mg/kg by tail vein on days 1, 3, 5, 7, 9, with or without 2 grays radiation; preliminary. It counts as in vivo, Athymic nude mice. On the procedure: We are actively experimenting with DNQ in mouse models of cancer. The Boothman lab has completed a pilot study of DNQ in an A549 subcutaneous xenograft model in nude mice (Blanco et al., Cancer Res. 2010, 70, 3896). […] Athymic nude mice were inoculated with A549 NSCLC cells and established tumors were allowed to grow to ˜200 mm^3. Mice were assigned to one of six treatment groups—four mice per group. […] The doses of DNQ were chosen based on the observation that 10 mg/kg DNQ elicited adverse reactions in mice. The other three groups received the same DNQ regimen and also received 2 grays of ionizing radiation on each treatment day. Tumor volumes were measured over the subsequent weeks (FIG. 3).

For orientation: logP means a log measure of how a compound divides between an organic and an aqueous phase. Low readings indicate a more hydrophilic compound, high ones a more lipophilic compound. The logD is the decadic logarithm of the distribution of all forms, ionised or not, between an organic phase and buffer at a given pH. A low value points to lower lipophilicity. Broadly, the pKa is the pH at which an ionisable group is half protonated. Consider `Cc1cc(=O)[nH]c2c1C(=O)c1c(C)cc(=O)n(CC(C)C)c1C2=O` [Compound 87], for which the logP in data set [1] (octanol/0.15 M KCl, unionized compound) came out at 1.8. For the same compound, the logD in data set [1] (pH 3.0, octanol/0.15 M KCl) was found to be 1.78; in data set [1] (pH 4.0, octanol/0.15 M KCl), 1.78; in data set [1] (pH 6.8, octanol/0.15 M KCl) it was 1.76; in data set [1] (pH 7.0, octanol/0.15 M KCl), 1.75; in data set [1] (pH 8.0, octanol/0.15 M KCl), 1.49; in data set [1] (pH 9.0, octanol/0.15 M KCl) it was 0.76. Besides, the pKa in data set [1] (potentiometric titrations, N—H) is 8. Further, the “stability in liver microsomes” value in data set [2] (1 hour) is “no sign of degradation”. Moreover, the “stability in plasma or whole blood” value in data set [2] (2 hours) is recorded as “no sign of degradation”. The “PAR-PARP1 formation in tumor tissue” value with PAR-PARP1 is “higher levels of PAR-PARP1 formation”. The “DNA single strand damage and base lesions” value in data set [3] (alkaline comet assays) is “extensive initial DNA single strand damage and base lesions”. Besides, in data set [3], the “delay of DNA double strand break formation after initial DNA SSBs and base lesions” value lay in the range of 15 to 30 min.
In turn, `Cc1cc(=O)[nH]c2c1C(=O)c1c(C)cc(=O)n(C)c1C2=O` [DNQ, Deoxynyboquinone, reference compound] yielded an LD90 in the data set with NQO1+ cells (2 hour exposure of NQO1+ cells) of 50 to 250 nM. Further, the “potency compared to β-lapachone” value with NQO1+ cells (cancer cell types, NQO1-dependent) is listed as 20- to 100 fold. In addition, the “dose that elicited adverse reactions in mice” value in the data set with healthy mice is 10 mg/kg. For the same compound, the “phenotype in mice at the MTD” value with healthy mice (ip) was “lethargic and unresponsive to touch”. In the data set with A549 NSCLC cells, the “rate of tumor growth” value is on record as “slower the rate of tumor growth relative to control”. Further, the “PAR-PARP1 formation in tumor tissue” value with PAR-PARP1 is “formation of PAR-PARP1”.
